Experimental data: PMC8711653, “The Nature of Diamino Linker and Halogen Bonding Define Selectivity of Pyrrolopyrimidine-Based LIMK1 Inhibitors” (Frontiers in Chemistry, 2021)
Where two headings read alike, the source gives them in different places.

Key:
[1] = biological target: T1, LIMK1 (Homo sapiens, UniProt P53667); test: LIMK1 ADP-Glo kinase assay (Promega); format: biochemical; details: 0.1 μM compound
T1 construct: purchased Promega
Experimental: ADP-Glo kinase assay was performed in 96-well plate format using the Promega kinase assay system. LIMK1 (0.1 μg) and compounds (0.1–100 μM) were dissolved in kinase reaction buffer and incubated for 30 min at rt. The reaction was then initiated by the addition of ATP (10 μM, 5 μl) and incubation for 30 min at 30°C. The reaction was then quenched with addition of 25 μl of ADP-Glo reagent. Kinase detection reagent (50 μl) was added and incubated for 30 min prior to luminescence reading on the BMG Labtech PHERAstar FS plate reader. Kinase assay is performed as duplicate.

[2] = biological target: T1, LIMK1; test: 33P-ATP radiotracer assay, LIMK1 (Reaction Biology Corporation); format: biochemical; details: for IC50: 33P transfer from ATP to cofilin, 10 μM 33P-ATP, 1 μM cofilin, triplicate
Experimental: (§1) To measure the selectivity against LIMK isoforms, the radiotracer assay measuring the transfer of ^33P from ATP to the substrate was used since there was no ADP-Glo™ kinase assay system available for LIMK2 (Table 2).
(§2) The radiotracer assay of LIMK1 and LIMK2 was performed by Reaction Biology Corporation. Compounds were tested in 10-dose IC50 mode with fivefold series dilution starting at 10 μM. Reactions were carried out at 10 μM ^33P-ATP, 1 μM cofilin substrate, and 50 nM LIMK1 (final concentration). Kinase activity is determined by the transfer or radioactive ^33P from ATP to cofilin substrate. Radiotracer assay is performed as triplicate.

[3] = biological target: T2, LIMK2 (Homo sapiens, UniProt P53671); test: 33P-ATP radiotracer assay, LIMK2 (Reaction Biology Corporation); format: biochemical
T2 construct: purchased Reaction Biology Corporation
T2 sequence (P53671 whole entry): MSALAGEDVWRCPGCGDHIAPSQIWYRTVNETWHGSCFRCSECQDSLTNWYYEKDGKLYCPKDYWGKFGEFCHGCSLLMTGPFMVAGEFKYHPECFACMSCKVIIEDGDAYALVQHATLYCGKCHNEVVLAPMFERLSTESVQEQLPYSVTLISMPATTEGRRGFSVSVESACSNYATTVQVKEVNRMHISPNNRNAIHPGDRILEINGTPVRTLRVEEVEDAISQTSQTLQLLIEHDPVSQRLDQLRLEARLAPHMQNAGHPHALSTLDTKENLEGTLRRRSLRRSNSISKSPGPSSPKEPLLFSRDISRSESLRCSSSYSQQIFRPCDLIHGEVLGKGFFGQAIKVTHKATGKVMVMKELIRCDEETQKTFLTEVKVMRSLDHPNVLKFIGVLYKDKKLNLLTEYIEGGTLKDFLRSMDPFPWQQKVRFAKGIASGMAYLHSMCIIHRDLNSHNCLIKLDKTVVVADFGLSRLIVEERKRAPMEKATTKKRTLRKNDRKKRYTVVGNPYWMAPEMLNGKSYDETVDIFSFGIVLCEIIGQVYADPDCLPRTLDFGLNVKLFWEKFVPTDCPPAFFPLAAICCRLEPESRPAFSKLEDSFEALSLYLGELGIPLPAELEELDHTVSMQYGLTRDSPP
Experimental: as §1, §2

[4] = tested on: C6 cells; test: Scratch (wound closure) assay, cell migration velocity; format: cell-based; details: live imaging 24 h, compared to untreated cell
Experimental: Cofilin, the substrate for LIMK1, regulates the actin skeleton and thus regulates cell migration ([Bravo-Cordero et al., 2013]). To understand the inhibitory effect of compounds 1 and 22–26 in vitro, scratch assays were performed. The artificial wound was created by “scratching” in the middle of the well with confluent C6 cells in culture. Live imaging was captured for 24 h to measure the distance of cell migration (Figure 3; Supplementary video).
The velocity of cell migration is measured using the C6 cell line in the 24-well plate. Cells were seeded at 100,000 cells/well. After 24 h, cells were washed with warm PBS and treated with the inhibitors. Directly following the treatment, cells were moved into a preheated stage-top incubator maintained at 37°C/5% CO2, using the ZEISS Axio Observer live cell microscope, fitted with an Axiocam 702 mono camera. Cells were imaged once every 10 min using a ×10 objective with phase contrast for a 24-h period. Cell migration was analysed using Fiji ImageJ (NIH) and Chemotaxis Migration Tool (ibidi).

[5] = biological target: T1, LIMK1; details: Figure 1A, known inhibitors, ref Harrison et al., 2009, Boland et al., 2015, Yin et al., Yi et al., 2017; cited from earlier work
[6] = biological target: T2, LIMK2; details: Figure 1A, known inhibitors, ref Harrison et al., 2009, Boland et al., 2015, Yin et al., Yi et al., 2017; cited from earlier work
[7] = Promega ADP-Glo kinase assay, Table 1, read-out: % LIMK1 inhibition at 0.1 μM
[8] = 33P transfer from ATP to cofilin, 10 μM 33P-ATP, 1 μM cofilin, triplicate
[9] = Promega ADP-Glo kinase assay, Table 1, read-out: % LIMK1 inhibition at 0.1 μM (dash = no inhibition)
[10] = ADP-Glo assay, read-out: LIMK1 inhibitory activity at 0.1 μM
[11] = Promega ADP-Glo kinase assay, Table 2, read-out: % LIMK1 inhibition at 0.1 μM
[12] = 33P radiotracer assay, top concentration 10 μM

T1 sequence (P53667 whole entry): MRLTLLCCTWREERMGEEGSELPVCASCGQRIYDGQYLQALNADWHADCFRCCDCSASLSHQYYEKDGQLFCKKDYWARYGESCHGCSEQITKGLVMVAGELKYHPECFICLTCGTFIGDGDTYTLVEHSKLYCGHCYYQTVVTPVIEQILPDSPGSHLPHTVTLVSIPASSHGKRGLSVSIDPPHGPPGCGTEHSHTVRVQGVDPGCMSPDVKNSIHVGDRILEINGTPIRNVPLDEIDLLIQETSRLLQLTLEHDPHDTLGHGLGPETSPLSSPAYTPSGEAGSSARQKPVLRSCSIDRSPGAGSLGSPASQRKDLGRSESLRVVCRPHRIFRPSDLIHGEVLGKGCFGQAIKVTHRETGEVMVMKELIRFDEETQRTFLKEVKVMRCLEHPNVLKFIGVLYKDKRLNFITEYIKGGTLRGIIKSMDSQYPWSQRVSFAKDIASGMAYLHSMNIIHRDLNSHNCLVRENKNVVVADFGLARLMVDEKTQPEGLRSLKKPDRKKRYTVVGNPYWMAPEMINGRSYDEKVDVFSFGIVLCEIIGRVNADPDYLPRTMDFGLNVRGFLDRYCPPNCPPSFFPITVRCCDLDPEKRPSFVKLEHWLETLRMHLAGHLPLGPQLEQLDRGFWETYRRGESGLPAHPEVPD

## Cc1c[nH]c2ncnc(N3CCN(/C(=N/C#N)Nc4cccc(Br)c4)[C@@H](C)C3)c12 [Compound 1, reference compound]
[1]; [7]
  inhibition at 0.1 µM: 94.3 ± 0.2%
[2]
  IC50: 0.00028 ± 1e-05 µM
[3]; [8]
  IC50: 0.00086 ± 5e-05 µM
[4]
  cell migration velocity: reduced the cell velocity by twofold

## CN(C)C(=O)Oc1cccc(NC(=O)C2(CN)CCN(c3ncnc4[nH]cc(Cl)c34)CC2)c1 [Compound 4]
[5]
  IC50: 0.024 µM
[6]
  IC50: 0.0016 µM

## Cc1c[nH]c2ncnc(NCCNC(=NC#N)Nc3cccc(Cl)c3)c12 [Compound 8, 1-(3-Chlorophenyl)-2-cyano-3-(2-((5-methyl-7H-pyrrolo[2,3-d]pyrimidin-4-yl)amino)ethyl)guanidine]
[1]; ADP-Glo assay
  LIMK1 inhibitory activity at 0.1 μM (in words): completely abolished inhibitory activity
[1]; [9]
  inhibition at 0.1 µM: < 0%
other
  melting point: 87 to 88 °C

## Cc1c[nH]c2ncnc(NCCNC(=NC#N)Nc3cccc(Br)c3)c12 [Compound 9, 1-(3-Bromophenyl)-2-cyano-3-(2-((5-methyl-7H-pyrrolo[2,3-d]pyrimidin-4-yl)amino)ethyl)guanidine]
[1]; [7]
  inhibition at 0.1 µM: 29.4 ± 10.3%
other
  melting point: 86 to 88 °C

## Cc1c[nH]c2ncnc(NCCNC(=NC#N)Nc3cccc(I)c3)c12 [Compound 10, 2-Cyano-1-(3-iodophenyl)-3-(2-((5-methyl-7H-pyrrolo[2,3-d]pyrimidin-4-yl)amino)ethyl)guanidine]
[1]; [7]
  inhibition at 0.1 µM: 17.8 ± 7.1%
other
  melting point: 88 to 89 °C

## Cc1c[nH]c2ncnc(NCCCNC(=NC#N)Nc3cccc(Cl)c3)c12 [Compound 11, 1-(3-Chlorophenyl)-2-cyano-3-(3-((5-methyl-7H-pyrrolo[2,3-d]pyrimidin-4-yl)amino)propyl)guanidine]
[1]; [7]
  inhibition at 0.1 µM: 15 ± 10.7%
other
  melting point: 88 to 90 °C

## Cc1c[nH]c2ncnc(NCCCNC(=NC#N)Nc3cccc(Br)c3)c12 [Compound 12, 1-(3-Bromophenyl)-2-cyano-3-(3-((5-methyl-7H-pyrrolo[2,3-d]pyrimidin-4-yl)amino)propyl)guanidine]
[1]; ADP-Glo assay
  LIMK1 inhibitory activity at 0.1 μM (in words): abolished the inhibitory activity
[1]; [9]
  inhibition at 0.1 µM: < 0%
other
  melting point: 88 to 89 °C

## Cc1c[nH]c2ncnc(NCCCNC(=NC#N)Nc3cccc(I)c3)c12 [Compound 13, 2-Cyano-1-(3-iodophenyl)-3-(3-((5-methyl-7H-pyrrolo[2,3-d]pyrimidin-4-yl)amino)propyl)guanidine]
[1]; [7]
  inhibition at 0.1 µM: 17.8 ± 7.1%
other
  melting point: 91 to 93 °C

## Cc1c[nH]c2ncnc(NCCCCNC(=NC#N)Nc3cccc(Cl)c3)c12 [Compound 14, 1-(3-Chlorophenyl)-2-cyano-3-(4-((5-methyl-7H-pyrrolo[2,3-d]pyrimidin-4-yl)amino)butyl)guanidine]
[1]; ADP-Glo assay
  LIMK1 inhibitory activity at 0.1 μM (in words): completely abolished inhibitory activity
[1]; [9]
  inhibition at 0.1 µM: < 0%
other
  melting point: 90 to 91 °C

## Cc1c[nH]c2ncnc(NCCCCNC(=NC#N)Nc3cccc(Br)c3)c12 [Compound 15, 1-(3-Bromophenyl)-2-cyano-3-(4-((5-methyl-7H-pyrrolo[2,3-d]pyrimidin-4-yl)amino)butyl)guanidine]
[1]; [10]
  inhibition at 0.1 µM: 47%
[1]; [7]
  inhibition at 0.1 µM: 47.1 ± 1.6%
other
  melting point: 97 to 98 °C

## Cc1c[nH]c2ncnc(NCCCCNC(=NC#N)Nc3cccc(I)c3)c12 [Compound 16, 2-Cyano-1-(3-iodophenyl)-3-(4-((5-methyl-7H-pyrrolo[2,3-d]pyrimidin-4-yl)amino)butyl)guanidine]
[1]; [7]
  inhibition at 0.1 µM: 41 ± 2.5%
other
  melting point: 90 to 91 °C

## Cc1c[nH]c2ncnc(N[C@H]3CC[C@H](NC(=NC#N)Nc4cccc(Cl)c4)CC3)c12 [Compound 17, 1-(3-Chlorophenyl)-2-cyano-3-((1r,4r)-4-((5-methyl-7H-pyrrolo[2,3-d]pyrimidin-4-yl)amino)cyclohexyl)guanidine]
[1]; [10]
  inhibition at 0.1 µM: 42%
[1]; [7]
  inhibition at 0.1 µM: 41.7 ± 0.1%
other
  melting point: 120 to 122 °C

## Cc1c[nH]c2ncnc(N[C@H]3CC[C@H](NC(=NC#N)Nc4cccc(Br)c4)CC3)c12 [Compound 18, 1-(3-Bromophenyl)-2-cyano-3-((1r,4r)-4-((5-methyl-7H-pyrrolo[2,3-d]pyrimidin-4-yl)amino)cyclohexyl)guanidine]
[1]; [10]
  inhibition at 0.1 µM: 69%
[1]; [7]
  inhibition at 0.1 µM: 69.2 ± 1.7%
other
  melting point: 127 to 128 °C

## Cc1c[nH]c2ncnc(N[C@H]3CC[C@H](NC(=NC#N)Nc4cccc(I)c4)CC3)c12 [Compound 19, 2-Cyano-1-(3-iodophenyl)-3-((1r,4r)-4-((5-methyl-7H-pyrrolo[2,3-d]pyrimidin-4-yl)amino)cyclohexyl)guanidine]
[1]; [7]
  inhibition at 0.1 µM: 66.6 ± 8.8%
other
  melting point: 129 to 130 °C

## Cc1c[nH]c2ncnc(N3CCN(C(=NC#N)Nc4cccc(I)c4)[C@@H](C)C3)c12 [Compound 22, (S)-N′-Cyano-N-(3-iodophenyl)-2-methyl-4-(5-methyl-7H-pyrrolo[2,3-d]pyrimidin-4-yl)piperazine-1-carboximidamide]
[1]; [11]
  inhibition at 0.1 µM: 95.5 ± 0.4%
[2]
  IC50: 0.00013 ± 1e-05 µM
[3]; [8]
  IC50: 0.00047 ± 1e-05 µM
[4]
  cell migration velocity: lowered the migration even further
other
  melting point: 130 to 131 °C

## Cc1c[nH]c2ncnc(N[C@@H]3CCCC[C@H]3NC(=NC#N)Nc3cccc(Br)c3)c12 [Compound 23, 1-(3-Bromophenyl)-2-cyano-3-((1R,2R)-2-((5-methyl-7H-pyrrolo[2,3-d]pyrimidin-4-yl)amino)cyclohexyl)guanidine]
[1]; [11]
  inhibition at 0.1 µM: 96.7 ± 0.1%
[2]
  IC50: 2.83 µM
[3]; [8]
  IC50: 2.65 µM
other
  melting point: 127 to 128 °C

## Cc1c[nH]c2ncnc(N[C@@H]3CCCC[C@H]3NC(=NC#N)Nc3cccc(I)c3)c12 [Compound 24, 2-Cyano-1-(3-iodophenyl)-3-((1R,2R)-2-((5-methyl-7H-pyrrolo[2,3-d]pyrimidin-4-yl)amino)cyclohexyl)guanidine]
[1]; [11]
  inhibition at 0.1 µM: 93.2 ± 1.2%
[2]
  IC50: 5.08 µM
[3]; [8]
  IC50: 3.38 µM
other
  melting point: 128 to 129 °C

## Cc1c[nH]c2ncnc(N[C@H]3CCCC[C@@H]3NC(=NC#N)Nc3cccc(Br)c3)c12 [Compound 25, 1-(3-Bromophenyl)-2-cyano-3-((1S,2S)-2-((5-methyl-7H-pyrrolo[2,3-d]pyrimidin-4-yl)amino)cyclohexyl)guanidine]
[1]; [11]
  inhibition at 0.1 µM: 96 ± 0.5%
[2]; 10 μM compound, 33P radiotracer assay
  inhibition at 10 µM: 47%
[3]; 33P radiotracer assay
  inhibition of LIMK2 (in words): no significant inhibition of LIMK2
[3]; [12]
  IC50: > 10 µM
other
  melting point: 127 to 128 °C

## Cc1c[nH]c2ncnc(N[C@H]3CCCC[C@@H]3NC(=NC#N)Nc3cccc(I)c3)c12 [Compound 26, 2-Cyano-1-(3-iodophenyl)-3-((1S,2S)-2-((5-methyl-7H-pyrrolo[2,3-d]pyrimidin-4-yl)amino)cyclohexyl)guanidine]
[1]; [11]
  inhibition at 0.1 µM: 94.9 ± 0.8%
[2]
  IC50: 8.36 µM
[3]; 33P radiotracer assay
  inhibition of LIMK2 (in words): no significant inhibition of LIMK2
[3]; [12]
  IC50: > 10 µM
other
  melting point: 128 to 129 °C
